Data published in US11786584B2, “Peptides and combination of peptides for use in immunotherapy against prostate cancer and other cancers” (Immatics Biotechnologies GmbH, priority 2015, dated 2023).

Columns and labels:
[1] = molecular target: HLA-A*02 (Homo sapiens, UniProt P04439, D140Y/D185E/D98H/E176V/E277Q/G131W/G231S/I119V/I121R/I166T/I218V/L300P/N151K/N90K/P208A/P217A/Q86G/Q94H/R138H/R169H); experiment: MHC binding assay by UV-ligand exchange and beta2m ELISA; conditions: peptide exchange yield
Excerpt: (§1) Candidate peptides for T cell based therapies according to the present invention were further tested for their MHC binding capacity (affinity). The individual peptide-MHC complexes were produced by UV-ligand exchange, where a UV-sensitive peptide is cleaved upon UV-irradiation, and exchanged with the peptide of interest as analyzed. Only peptide candidates that can effectively bind and stabilize the peptide-receptive MHC molecules prevent dissociation of the MHC complexes. To determine the yield of the exchange reaction, an ELISA was performed based on the detection of the light chain (β2m) of stabilized MHC complexes. The assay was performed as generally described in Rodenko et al. (Rodenko et al., 2006).
(§2) 96 well MAXISorp plates (NUNC) were coated over night with 2 ug/ml streptavidin in PBS at room temperature, washed 4× and blocked for 1 h at 37° C. in 2% BSA containing blocking buffer. Refolded HLA-A*02:01/MLA-001 monomers served as standards, covering the range of 15-500 ng/ml. Peptide-MHC monomers of the UV-exchange reaction were diluted 100 fold in blocking buffer. Samples were incubated for 1 h at 37° C., washed four times, incubated with 2 ug/ml HRP conjugated anti-β2m for 1 h at 37° C., washed again and detected with TMB solution that is stopped with […]. Absorption was measured at 450 nm. Candidate peptides that show a high exchange yield (preferably higher than 50%, most preferred higher than 75%) are generally preferred for a generation and production of antibodies or fragments thereof, and/or T cell receptors or fragments thereof, as they show sufficient avidity to the MHC molecules and prevent dissociation of the MHC complexes.

[2] = tested on: CD8+ T cells; experiment: In vitro T-cell priming assay with aAPCs loaded with peptide/MHC and anti-CD28, multimer readout; format: cell-based, human; conditions: in vitro immunogenicity; for Wells positive [%]: Table 15B; for donors / wells: Table 15A; for donors: positive donors; for wells: positive wells
Excerpt: In order to obtain information regarding the immunogenicity of the TUMAPs of the present invention, the inventors performed investigations using an in vitro T-cell priming assay based on repeated stimulations of CD8+ T cells with artificial antigen presenting cells (aAPCs) loaded with peptide/MHC complexes and anti-CD28 antibody.
In order to perform in vitro stimulations by artificial antigen presenting cells loaded with peptide-MHC complex (pMHC) and anti-CD28 antibody, the inventors first isolated CD8+ T cells from fresh HLA-A*02 leukapheresis products via positive selection using CD8 microbeads (Miltenyi Biotec, Bergisch-Gladbach, Germany) of healthy donors obtained from the University clinics Mannheim, Germany, after informed consent.
PBMCs and isolated CD8+ lymphocytes were incubated in T-cell medium (TCM) until use consisting of RPMI-Glutamax (Invitrogen, Karlsruhe, Germany) supplemented with 10% heat inactivated human AB serum (PAN-Biotech, Aidenbach, Germany), 100 U/ml Penicillin/100 μg/ml Streptomycin (Cambrex, Cologne, Germany), 1 mM sodium pyruvate (CC Pro, Oberdorla, Germany), 20 μg/ml Gentamycin (Cambrex). 2.5 ng/ml IL7 (PromoCell, Heidelberg, Germany) and 10 U/ml IL-2 (Novartis Pharma, Nurnberg, Germany) were also added to the TCM at this step.
Generation of pMHC/anti-CD28 coated beads, T-cell stimulations and readout was performed in a highly defined in vitro system using four different pMHC molecules per stimulation condition and 8 different pMHC molecules per readout condition.
The purified co-stimulatory mouse IgG2a anti human CD28 Ab 9.3 (Jung et al., 1987) was chemically biotinylated using Sulfo-N-hydroxysuccinimidobiotin as recommended by the manufacturer (Perbio, Bonn, Germany). Beads used were 5.6 μm diameter streptavidin coated polystyrene particles (Bangs Laboratories, Illinois, USA).
800.000 beads/200 μl were coated in 96-well plates in the presence of 4×12.5 ng different biotin-pMHC, washed and 600 ng biotin anti-CD28 were added subsequently in a volume of 200 μl. Stimulations were initiated in 96-well plates by co-incubating […] CD8+ T cells with 2×10^5 washed coated beads in 200 μl TCM supplemented with 5 ng/ml IL-12 (PromoCell) for 3 days at 37° C. Half of the medium was then exchanged by fresh TCM supplemented with 80 U/ml IL-2 and incubating was continued for 4 days at 37° C. This stimulation cycle was performed for a total of three times. For the pMHC multimer readout using 8 different pMHC molecules per condition, a two-dimensional combinatorial coding approach was used as previously described (Andersen et al., 2012) with minor modifications encompassing coupling to 5 different fluorochromes. Finally, multimeric analyses were performed by staining the cells with Live/dead near IR dye (Invitrogen, Karlsruhe, Germany), CD8-FITC antibody clone SK1 (BD, Heidelberg, Germany) and fluorescent pMHC multimers. For analysis, a BD LSRII SORP cytometer equipped with appropriate lasers and filters was used. Peptide specific cells were calculated as percentage of total CD8+ cells. Evaluation of multimeric analysis was done using the FlowJo software (Tree Star, Oregon, USA). In vitro priming of specific multimer+ CD8+ lymphocytes was detected by comparing to negative control stimulations.

[3] = tested on: HLA-A*24; experiment: MHC binding assay by UV-ligand exchange and beta2m ELISA; parameters: species or system human; conditions: peptide exchange yield
Excerpt: as §1, §2

| Substance | Peptide exchange [1] | Peptide exchange [3] | also measured |
| --- | --- | --- | --- |
| 1 (VTAQIGIVAV; listed as Homo sapiens) [compound 1] | ++++ (>75% = ++++) |  | Wells positive [%] [2]: ++++ (>=70% = ++++) |
| 2 (SMLGEEIQL; listed as Homo sapiens) [compound 2] | ++++ (>75% = ++++) |  |  |
| 3 (HLLEDIAHV; listed as Homo sapiens) [compound 3] | ++++ (>75% = ++++) |  | Wells positive [%] [2]: ++ (20%-49% = ++) |
| 4 (ALLTFVWKL; listed as Homo sapiens) [compound 4] | ++++ (>75% = ++++) |  |  |
| 5 (KIFSRLIYI; listed as Homo sapiens) [compound 5] | +++ (>50 = +++) |  | Wells positive [%] [2]: +++ (50%-69%= +++) |
| 6 (ALLESRVNL; listed as Homo sapiens) [compound 6] | ++++ (>75% = ++++) |  | Wells positive [%] [2]: + (<20% = +) |
| 7 (TLLQVVGVVSV; listed as Homo sapiens) [compound 7] | ++ (>20% = ++) |  |  |
| 9 (GMLNEAEGKAIKL; listed as Homo sapiens) [compound 9] | +++ (>50 = +++) |  |  |
| 10 (TLWRGPVVV; listed as Homo sapiens) [compound 10] | +++ (>50 = +++) |  |  |
| 11 (YLEEECPAT; listed as Homo sapiens) [compound 11] | ++ (>20% = ++) |  |  |
| 13 (AMAPNHAVV; listed as Homo sapiens) [compound 13] | +++ (>50 = +++) |  |  |
| 14 (KMDEASAQLL; listed as Homo sapiens) [compound 14] | ++ (>20% = ++) |  |  |
| 15 (KMDEASAQLLA; listed as Homo sapiens) [compound 15] | +++ (>50 = +++) |  |  |
| 16 (KMDEASAQL; listed as Homo sapiens) [compound 16] | +++ (>50 = +++) |  |  |
| 17 (RLGIKPESV; listed as Homo sapiens) [compound 17] |  |  | donors [2]: ++++ (>=70% = ++++); wells [2]: ++ (20%-49% = ++) |
| 20 (SLLSHQVLL; listed as Homo sapiens) [compound 20] | +++ (>50 = +++) |  |  |
| 21 (YLNDSLRHV; listed as Homo sapiens) [compound 21] | ++ (>20% = ++) |  |  |
| 22 (SLYDSIAFI; listed as Homo sapiens) [compound 22] | ++++ (>75% = ++++) |  |  |
| 24 (SYNDALLTF; listed as Homo sapiens) [compound 24] |  | +++ (>50 = +++) | Wells positive [%] [2]: +++ (50%-69%= +++) |
| 25 (IYEPYLAMF; listed as Homo sapiens) [compound 25] |  | +++ (>50 = +++) |  |
| 26 (RYADDTFTPAF; listed as Homo sapiens) [compound 26] |  | +++ (>50 = +++) |  |
| 27 (GYLQGLVSF; listed as Homo sapiens) [compound 27] |  | ++++ (>75% = ++++) | Wells positive [%] [2]: ++ (20%-49% = ++) |
| 28 (YYAKEIHKF; listed as Homo sapiens) [compound 28] |  | ++++ (>75% = ++++) |  |

| Substance | Peptide exchange [1] | Peptide exchange [3] | also measured |
| --- | --- | --- | --- |
| 29 (RYGSPINTF; listed as Homo sapiens) [compound 29] |  | +++ (>50 = +++) | donors [2]: +++ (50%-69% = +++); wells [2]: + (<20% = +) |
| 30 (SYSPAHARL; listed as Homo sapiens) [compound 30] |  | +++ (>50 = +++) |  |
| 31 (AYTSPPSFF; listed as Homo sapiens) [compound 31] |  | +++ (>50 = +++) |  |
| 32 (PYQLNASLFTF; listed as Homo sapiens) [compound 32] |  | ++++ (>75% = ++++) |  |
| 33 (QYGKDFLTL; listed as Homo sapiens) [compound 33] |  | +++ (>50 = +++) |  |
| 34 (AFSPDSHYLLF; listed as Homo sapiens) [compound 34] |  | +++ (>50 = +++) | donors [2]: +++ (50%-69% = +++); wells [2]: + (<20% = +) |
| 35 (IYTRVTYYL; listed as Homo sapiens) [compound 35] |  | ++ (>20% = ++) | donors [2]: ++++ (>=70% = ++++); wells [2]: ++ (20%-49% = ++) |
| 36 (RYMWINQEL; listed as Homo sapiens) [compound 36] |  | +++ (>50 = +++) |  |
| 41 (RYLQKIEEF; listed as Homo sapiens) [compound 41] |  | +++ (>50 = +++) |  |
| 42 (TYIGQGYII; listed as Homo sapiens) [compound 42] |  | +++ (>50 = +++) | donors [2]: ++++ (>=70% = ++++); wells [2]: + (<20% = +) |
| 43 (AYIKNGQLF; listed as Homo sapiens) [compound 43] |  | +++ (>50 = +++) |  |
| 44 (VYNTVSEGTHF; listed as Homo sapiens) [compound 44] |  | +++ (>50 = +++) |  |
| 45 (RYFKTPRKF; listed as Homo sapiens) [compound 45] |  | ++ (>20% = ++) |  |
| 47 (SYTPVLNQF; listed as Homo sapiens) [compound 47] |  | ++++ (>75% = ++++) |  |
| 48 (AWAPKPYHKF; listed as Homo sapiens) [compound 48] |  | +++ (>50 = +++) |  |
| 52 (ALGDLVQSV; listed as Homo sapiens) [compound 52] | +++ (>50 = +++) |  |  |
| 53 (YLLKDKGEYTL; listed as Homo sapiens) [compound 53] | +++ (>50 = +++) |  |  |
| 54 (AYSEKVTEF; listed as Homo sapiens) [compound 54] |  | +++ (>50 = +++) |  |
| 55 (LYFEKGEYF; listed as Homo sapiens) [compound 55] |  | ++++ (>75% = ++++) |  |
| 56 (LFHPEDTGQVF; listed as Homo sapiens) [compound 56] |  | ++ (>20% = ++) |  |
| 58 (GYIDKVRQL; listed as Homo sapiens) [compound 58] |  | ++ (>20% = ++) |  |
| 59 (IYPDVTYAF; listed as Homo sapiens) [compound 59] |  | +++ (>50 = +++) |  |
